Source: US20220282271A1, “HERBICIDE RESISTANT PLANTS AND METHODS OF MAKING AND USING” (OFFICE OF INNOVATION ADVANCEMENT AND COMMERCIALIZATION, priority 2019, published 2022)

What was measured:
[1] = test system: PPO1 from S E. indica biotype (Ala212) expressed in hemG mutant E. coli strain SASX38; assay: hemG mutant E. coli SASX38 complementation assay, S PPO1; assay type: cell-based, Eleusine indica; conditions: LB medium; 0, 10, 50, 100, 200 μM tested; 37° C., 20 h
From the text: (§1) Two putative PPO-inhibitor resistant (R-) and susceptible (S-) plasmids were created to test the role of the chloroplast-targeted PPO1 in the E. indica biotypes. The PPO1 from R1, R2 and S E. indica biotypes were cloned into the pBAD-TOPO expression vector using the pBAD TOPO™ TA Expression kit (Invitrogen, Carlsbad, Calif.), respectively. The PPO1 product was amplified using the same PCR primers and PCR reaction system as cDNA sequencing, so that the PPO1 translation began at the ATG start codon. Three different pBAD-TOPO PPO1 constructs were created and sequenced to confirm they were identical with the PPO1 gene from R1, R2 and S E. indica biotypes and there were no other nucleotide polymorphisms in the cloning experiment. R- and S-PPO1 plasmids were used to transform a hemG mutant Escherichia coli strain SASX38 by electroporation. The SASX38 mutant strain was grown on LB medium supplemented with 10 μg/mL hematin. Expression of the PPO1 in the transformed colonies of the SASX38 mutant strain were induced on LB medium with 2% L-arabinose. […]

[2] = test system: PPO1 from R1 and R2 E. indica biotypes (A212T) expressed in hemG mutant E. coli strain SASX38; assay: hemG mutant E. coli SASX38 complementation assay, R1 and R2 PPO1; assay type: cell-based, Eleusine indica; conditions: R1 and R2 alleles; LB medium; 0, 10, 50, 100, 200 μM tested; 37° C., 20 h
From the text: as §1

Senna obtusifolia = assay: Weed control screen: sicklepod; assay type: in vivo; conditions: 1.0 lb ai/a, applied approximately 3 weeks after emergence, relative to non-treated
Experimental: (§2) Herbicides were applied at a spray volume of 280 L/ha with no adjuvant added to any herbicide mixture. Weed control was rated on a 0 to 100 percent phytoxicity scale with 0 being no plant injury/phytotoxicity and 100 being complete plant dessication. Twenty-one weeds were evaluated for response to herbicides (Table 3). The weeds selected were a mixture of weeds common in agronomic and horticultural crops. Herbicide was applied to all species approximately 3 weeks after emergence. Plant phytotoxicity rated as percent control relative to the non-treated.

Sida spinosa = assay: Weed control screen: prickly sida; assay type: in vivo; conditions: 1.0 lb ai/a, applied approximately 3 weeks after emergence, relative to non-treated
Experimental: as §2

Cyperus iria = assay: Weed control screen: rice flatsedge; assay type: in vivo; conditions: 1.0 lb ai/a, applied approximately 3 weeks after emergence, relative to non-treated
Experimental: as §2

Eleusine indica = assay: Weed control screen: goosegrass; assay type: in vivo; conditions: 1.0 lb ai/a, applied approximately 3 weeks after emergence, relative to non-treated
Experimental: as §2

[3] = test system: Twenty-one weeds common in agronomic and horticultural crops; assay: Weed control screen: summary over the twenty-one weeds; assay type: in vivo
Experimental: as §2

## CC(C)Oc1cc(-n2nc(C(C)(C)C)oc2=O)c(Cl)cc1Cl [Oxadiazon, oxadiazon]
[1]
  Concentration in medium that inhibited the growth of the transformed E. coli: 50 µM
[2]
  Concentration at which the transformed E. coli were able to grow: up to 200 μM
Senna obtusifolia
  Percent control (0 to 100): 90%
Sida spinosa
  Percent control (0 to 100): 90%
Cyperus iria
  Percent control (0 to 100): 60%
Eleusine indica
  Percent control (0 to 100): 100%
[3]; 1.0 lb ai/a
  Number of the 21 weeds evaluated controlled at a level greater than or equal to 90%: 13 weeds
[3]; 1.0 lb ai/a each
  Number of the 21 weeds controlled greater than or equivalent to glyphosate: 18 weeds
